{"source": "PubChem BioAssay AID248", "about": "(DTP/NCI, 2004)", "system": "L1210 leukemia ip in BDF1 mice, survival T/C", "assay": "NCI In Vivo Anticancer Drug Screen. Data for tumor model L1210 Leukemia (intraperitoneal) in B6D2F1 (BDF1) mice", "details": "endpoint: mean survival time, higher = longer survival", "in_short": "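Transplanted-tumor mice were given test agent; controls received vehicle only. Survival readings from the two groups were divided (treated over control).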", "key": {"[1]": {"details": "dose: 100.0 mg/kg/injection, schedule: Q01DX009 (ip), vehicle: saline"}, "[2]": {"details": "dose: 100.0 mg/kg/injection, schedule: Q04DX003 (ip), vehicle: saline"}, "[3]": {"details": "dose: 200.0 mg/kg/injection, schedule: Q01DX009 (ip), vehicle: saline"}, "[4]": {"details": "dose: 200.0 mg/kg/injection, schedule: Q04DX003 (ip), vehicle: saline"}, "[5]": {"details": "dose: 400.0 mg/kg/injection, schedule: Q01DX009 (ip), vehicle: saline"}, "[6]": {"details": "dose: 400.0 mg/kg/injection, schedule: Q04DX003 (ip), vehicle: saline"}}, "note": "Inconclusive results and toxic doses are left out."}
{"smiles": "COc1cc([N+](=O)[O-])c(C(OC(C)=O)OC(C)=O)cc1Br", "values": [{"measurement": "T/C", "setting": "dose: 100.0 mg/kg/injection, schedule: Q01DX001 (ip), vehicle: acetone", "result": "98 % of control"}, {"measurement": "T/C", "setting": "[1]", "result": "94 % of control"}, {"measurement": "T/C", "setting": "[2]", "result": "105 % of control"}, {"measurement": "T/C", "setting": "dose: 200.0 mg/kg/injection, schedule: Q01DX001 (ip), vehicle: acetone", "result": "88 % of control"}, {"measurement": "T/C", "setting": "[3]", "result": "86 % of control"}, {"measurement": "T/C", "setting": "[4]", "result": "109 % of control"}, {"measurement": "T/C", "setting": "dose: 400.0 mg/kg/injection, schedule: Q01DX001 (ip), vehicle: acetone", "result": "97 % of control"}, {"measurement": "T/C", "setting": "[5]", "result": "88 % of control"}, {"measurement": "T/C", "setting": "[6]", "result": "105 % of control"}]}
{"smiles": "COC(=O)C(C)=C1CCCCC1", "values": [{"measurement": "T/C", "setting": "[1]", "result": "106 % of control"}, {"measurement": "T/C", "setting": "[2]", "result": "93 % of control"}, {"measurement": "T/C", "setting": "[3]", "result": "96 % of control"}, {"measurement": "T/C", "setting": "[4]", "result": "98 % of control"}, {"measurement": "T/C", "setting": "[5]", "result": "96 % of control"}, {"measurement": "T/C", "setting": "[6]", "result": "95 % of control"}]}
{"smiles": "CC(=O)SC1CS(=O)(=O)CC1SC(C)=O", "note": "(stereo not given)", "values": [{"measurement": "T/C", "setting": "dose: 100.0 mg/kg/injection, schedule: Q04DX003 (ip), vehicle: Klucel (hydroxypropylcellulose) (HPC)", "result": "93 % of control"}, {"measurement": "T/C", "setting": "dose: 200.0 mg/kg/injection, schedule: Q04DX003 (ip), vehicle: Klucel (hydroxypropylcellulose) (HPC)", "result": "101 % of control"}]}
{"smiles": "NC(=O)C(O)C(O)C(O)C(O)CCl", "note": "(stereo not given)", "values": [{"measurement": "T/C", "setting": "dose: 50.0 mg/kg/injection, schedule: Q04DX002 (ip), vehicle: saline with Tween-80", "result": "96 % of control"}, {"measurement": "T/C", "setting": "dose: 100.0 mg/kg/injection, schedule: Q04DX002 (ip), vehicle: saline with Tween-80", "result": "93 % of control"}, {"measurement": "T/C", "setting": "dose: 200.0 mg/kg/injection, schedule: Q04DX002 (ip), vehicle: saline with Tween-80", "result": "98 % of control"}, {"measurement": "T/C", "setting": "dose: 400.0 mg/kg/injection, schedule: Q04DX002 (ip), vehicle: saline with Tween-80", "result": "96 % of control"}]}
{"smiles": "CCS(=O)(=O)Nc1ccc(NS(=O)(=O)CC)cc1", "values": [{"measurement": "T/C", "setting": "dose: 100.0 mg/kg/injection, schedule: Q01DX009 (ip), vehicle: Klucel (hydroxypropylcellulose) (HPC)", "result": "96 % of control"}, {"measurement": "T/C", "setting": "dose: 200.0 mg/kg/injection, schedule: Q01DX009 (ip), vehicle: Klucel (hydroxypropylcellulose) (HPC)", "result": "100 % of control"}, {"measurement": "T/C", "setting": "dose: 400.0 mg/kg/injection, schedule: Q01DX009 (ip), vehicle: Klucel (hydroxypropylcellulose) (HPC)", "result": "101 % of control"}]}
{"smiles": "O=[N+]([O-])c1cc(/C=N/Nc2nnc(N/N=C/c3ccc(Cl)c([N+](=O)[O-])c3)c3ccccc23)ccc1Cl", "values": [{"measurement": "T/C", "setting": "dose: 50.0 mg/kg/injection, schedule: Q01DX001 (ip), vehicle: saline", "result": "106 % of control"}, {"measurement": "T/C", "setting": "dose: 100.0 mg/kg/injection, schedule: Q01DX001 (ip), vehicle: saline", "result": "96 % of control"}, {"measurement": "T/C", "setting": "dose: 200.0 mg/kg/injection, schedule: Q01DX001 (ip), vehicle: saline", "result": "100 % of control"}, {"measurement": "T/C", "setting": "dose: 400.0 mg/kg/injection, schedule: Q01DX001 (ip), vehicle: saline", "result": "100 % of control"}]}
{"smiles": "CCCOC(c1ccc2c(c1)OCO2)C(C)Br", "note": "(stereo not given)", "values": [{"measurement": "T/C", "setting": "dose: 100.0 mg/kg/injection, schedule: Q04DX003 (ip), vehicle: saline with Tween-80", "result": "97 % of control"}, {"measurement": "T/C", "setting": "dose: 200.0 mg/kg/injection, schedule: Q04DX003 (ip), vehicle: saline with Tween-80", "result": "94 % of control"}, {"measurement": "T/C", "setting": "dose: 400.0 mg/kg/injection, schedule: Q04DX003 (ip), vehicle: saline with Tween-80", "result": "94 % of control"}]}
{"smiles": "CC(=O)Nc1ccc(/C=N/N=C(N)N)cc1", "values": [{"measurement": "T/C", "setting": "dose: 63.0 mg/kg/injection, schedule: Q01DX Z (ip), vehicle: carboxymethylcellulose (CMC)", "result": "88 % of control"}, {"measurement": "T/C", "setting": "dose: 125.0 mg/kg/injection, schedule: Q01DX Z (ip), vehicle: carboxymethylcellulose (CMC)", "result": "100 % of control"}]}
{"smiles": "C=C(C)C1(CCCC)C(=O)NC(=S)NC1=O", "values": [{"measurement": "T/C", "setting": "dose: 75.0 mg/kg/injection, schedule: Q01DX001 (ip), vehicle: saline", "result": "102 % of control"}, {"measurement": "T/C", "setting": "dose: 150.0 mg/kg/injection, schedule: Q01DX001 (ip), vehicle: saline", "result": "95 % of control"}]}
{"smiles": "CS(=O)(=O)OCCN(CCOS(C)(=O)=O)c1ccc(C=Nc2ccc(-c3csc(-c4ccc(Cl)cc4)n3)cc2)cc1", "values": [{"measurement": "T/C", "setting": "dose: 66.0 mg/kg/injection, schedule: Q04DX003 (ip), vehicle: Klucel (hydroxypropylcellulose) (HPC)", "result": "122 % of control"}, {"measurement": "T/C", "setting": "dose: 150.0 mg/kg/injection, schedule: Q04DX003 (ip), vehicle: Klucel (hydroxypropylcellulose) (HPC)", "result": "153 % of control"}]}
{"smiles": "Nc1cc(Cl)cc2c1-c1ccc(Cl)cc1/C2=N\\O", "values": [{"measurement": "T/C", "setting": "dose: 100.0 mg/kg/injection, schedule: Q01DX001 (ip), vehicle: carboxymethylcellulose (CMC)", "result": "100 % of control"}, {"measurement": "T/C", "setting": "dose: 200.0 mg/kg/injection, schedule: Q01DX001 (ip), vehicle: carboxymethylcellulose (CMC)", "result": "97 % of control"}, {"measurement": "T/C", "setting": "dose: 400.0 mg/kg/injection, schedule: Q01DX001 (ip), vehicle: carboxymethylcellulose (CMC)", "result": "97 % of control"}]}
